The values below come from US20230071978A1, “METHOD FOR TREATING IDH1 INHIBITOR-RESISTANT SUBJECTS” (Eli Lilly and Company, priority 2020, published 2023).

The target in experiment [1] is T1, R132H_S280F mutant IDH1 (Homo sapiens, UniProt O75874, R132H/S280F).
T1 construct: myc; expressed in transfected cells; host or cells: Ba/F3 (DSMZ ACC 300), stably transfected
Briefly: 2-HG cell-based inhibition assay, U87MG R132H_S280F. The following applies: Cell line construct U87MG R132H_S280F; 2-HG by LC-MS. As for the experimental part:
(§1) Compounds and Formulation. […] DMSO preps are further diluted with cell culture media prior to addition in the assay.
(§2) Cell lines. U-87 MG cells (ATCC, HTB-14) are cultured and assayed in MEM (Gibco, 11095) with 2 mM GlutaMAX (Gibco, 35050), 1 mM Pyruvate (Gibco, 11360), 0.1 mM NEAA ((Non-essential amino acid) Gibco, 11140) and 10% dialyzed FBS (Fetal bovine serum) (Gibco, 26400). Ba/F3 cells (DSMZ, ACC 300) are cultured and assayed in RPMI 1640 (Gibco, 22400) with 10% heat inactivated FBS (Gibco, 10082-147) and 10 ng/ml mouse IL3 (R&D systems, 403-ML-025).
(§3) Cell-based inhibition assays. Cell-based assays are performed by measuring 2-HG in either U-87 MG cells or Ba/F3 cells in which IDH mutations are expressed.
(§4) DNA constructs encoding IDH1 mutations are introduced into U-87 MG cells using transfection (Promega FuGENE HD, E2311) or lentiviral transduction, and the IDH-mutant expressing cell lines are selected using blasticidin (5 μg/ml) or puromycin (1 μg/ml). […]
(§5) LC-MS metabolite analysis of conditioned media and cell lysates. The effect of inhibitors on the concentrations of 2-HG are determined by liquid chromatography-mass spectrometry (LC-MS) analysis of cell lysates or conditioned media using either a derivatization method or an ion-pairing method as described below. […]

The target of the next experiment is T2, IDH1R132C_G289D cis (Homo sapiens, UniProt O75874, G289D/R132C).
T2 construct: expressed in transfected cells; host or cells: U-87 MG (ATCC HTB-14)
T2 sequence (O75874 whole entry R132C/G289D): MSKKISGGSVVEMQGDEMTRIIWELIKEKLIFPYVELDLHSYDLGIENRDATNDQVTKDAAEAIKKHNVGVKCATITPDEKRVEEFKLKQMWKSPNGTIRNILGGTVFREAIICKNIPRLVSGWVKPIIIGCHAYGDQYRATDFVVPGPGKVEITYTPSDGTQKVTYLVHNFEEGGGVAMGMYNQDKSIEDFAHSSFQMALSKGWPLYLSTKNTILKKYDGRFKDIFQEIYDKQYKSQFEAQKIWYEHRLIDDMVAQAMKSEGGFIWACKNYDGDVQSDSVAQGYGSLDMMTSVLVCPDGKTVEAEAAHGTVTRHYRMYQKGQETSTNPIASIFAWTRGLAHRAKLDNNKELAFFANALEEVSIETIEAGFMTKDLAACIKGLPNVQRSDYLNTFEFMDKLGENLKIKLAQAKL
Briefly: 2-HG cell-based inhibition assay, U87MG IDH1R132C_G289D cis. The following applies: Cell line construct U87MG IDH1R132C_G289D cis; 2-HG by LC-MS. As for the experimental part:
as §1, §2, §3, §4, §5

The target in another experiment is T3, IDH1R132C_H315D cis (Homo sapiens, UniProt O75874, H315D/R132C).
T3 construct: expressed in transfected cells; host or cells: U-87 MG (ATCC HTB-14)
T3 sequence (O75874 whole entry R132C/H315D): as the sequence (O75874 whole entry R132C/G289D) above, with D289G, H315D counted along it
Briefly: 2-HG cell-based inhibition assay, U87MG IDH1R132C_H315D cis. The following applies: Cell line construct U87MG IDH1R132C_H315D cis; 2-HG by LC-MS. As to the method:
as §1, §2, §3, §4, §5

The target in the next experiment is T4, IDH1R132H_R119P cis (Homo sapiens, UniProt O75874, R119P/R132H).
T4 construct: expressed in transfected cells; host or cells: U-87 MG (ATCC HTB-14)
T4 sequence (O75874 whole entry R119P/R132H): as the sequence (O75874 whole entry R132C/G289D) above, with R119P, C132H, D289G counted along it
The experiment is described as follows: 2-HG cell-based inhibition assay, U87MG IDH1R132H_R119P cis. To be noted: Cell line construct U87MG IDH1R132H_R119P cis; 2-HG by LC-MS. As for the experimental part:
as §1, §2, §3, §4, §5

Another experiment deals with T5, IDH1R132L_G289D cis (Homo sapiens, UniProt O75874, G289D/R132L).
T5 construct: expressed in transfected cells; host or cells: U-87 MG (ATCC HTB-14)
T5 sequence (O75874 whole entry R132L/G289D): as the sequence (O75874 whole entry R132C/G289D) above, with C132L counted along it
Briefly: 2-HG cell-based inhibition assay, U87MG IDH1R132L_G289D cis. The following applies: Cell line construct U87MG IDH1R132L_G289D cis; 2-HG by LC-MS. As to the method: as §1, §2, §3, §4, §5

The target in experiment [2] is T6, R132C_S280F mutant IDH1 (Homo sapiens, UniProt O75874, R132C/S280F).
T6 construct: myc; expressed in transfected cells; host or cells: Ba/F3 (DSMZ ACC 300), stably transfected
T6 sequence (O75874 whole entry R132C/S280F): as the sequence (O75874 whole entry R132C/G289D) above, with S280F, D289G counted along it
Briefly: 2-HG cell-based inhibition assay, Ba/F3 R132C_S280F. The following applies: Cell line construct Ba/F3 R132C_S280F; 2-HG in conditioned media by LC-MS.

For another experiment, the target named is T7, IDH1R132L_R119P cis (Homo sapiens, UniProt O75874, R119P/R132L).
T7 construct: expressed in transfected cells; host or cells: U-87 MG (ATCC HTB-14)
T7 sequence (O75874 whole entry R119P/R132L): as the sequence (O75874 whole entry R132C/G289D) above, with R119P, C132L, D289G counted along it
Briefly: 2-HG cell-based inhibition assay, U87MG IDH1R132L_R119P cis. To be noted: Cell line construct U87MG IDH1R132L_R119P cis; 2-HG by LC-MS. As to the method:
as §1, §2, §3, §4, §5

The target in experiment [3] is T8, R132H mutant IDH1 (Homo sapiens, UniProt O75874, R132H).
T8 construct: myc; expressed in transfected cells; host or cells: Ba/F3 (DSMZ ACC 300), stably transfected
T8 sequence (O75874 whole entry R132H): as the sequence (O75874 whole entry R132C/G289D) above, with C132H, D289G counted along it
Briefly: 2-HG cell-based inhibition assay, U87MG R132H. To be noted: Cell line construct U87MG R132H; 2-HG by LC-MS. As for the experimental part: as §1, §2, §3, §4, §5

The target in experiment [4] is T8, R132H mutant IDH1. Briefly: 2-HG cell-based inhibition assay, Ba/F3 R132H. To be noted: Cell line construct Ba/F3 R132H; 2-HG in conditioned media by LC-MS. As to the method: as §1, §3
Ba/F3 cells are transfected with DNA constructs encoding IDH1R132H-myc, IDH1R132H_S280E-myc, or IDH1R132C_S280E-myc constructs using NEON Transfection system (Life Technologies, MPK10025) and isolated using Puromycin (2 μg/mL) or Blasticidin (10 μg/mL). Stably transfected lines are used for inhibitor assays. […] Cells are treated with serial dilutions of the desired compounds in standard growth media. Plates are incubated in a mammalian cell culture incubator (humidified, 37° C., 5% CO2) for the desired time (72 or 96 hours). Following the incubation period, conditioned media from each well is collected for 2-HG analysis by LC-MS.
LC-MS metabolite analysis of conditioned media and cell lysates. The effect of inhibitors on the concentrations of 2-HG are determined by liquid chromatography-mass spectrometry (LC-MS) analysis of cell lysates or conditioned media using either a derivatization method or an ion-pairing method as described below.
For the derivatization LC-MS method, calibration curves are prepared by spiking 2-HG and α-KG into cell culture media and cell lysis buffer respectively. […]

The next experiment has as its target T9, IDH1R132C_R119P cis (Homo sapiens, UniProt O75874, R119P/R132C).
T9 construct: expressed in transfected cells; host or cells: U-87 MG (ATCC HTB-14)
The experiment is described as follows: 2-HG cell-based inhibition assay, U87MG IDH1R132C_R119P cis. To be noted: Cell line construct U87MG IDH1R132C_R119P cis; 2-HG by LC-MS. As to the method: as §1, §2, §3, §4, §5

The next experiment deals with T10, IDH1R132C_D279N cis (Homo sapiens, UniProt O75874, D279N/R132C).
T10 construct: expressed in transfected cells; host or cells: U-87 MG (ATCC HTB-14)
T10 sequence (O75874 whole entry R132C/D279N): as the sequence (O75874 whole entry R132C/G289D) above, with D279N, D289G counted along it
The experiment is described as follows: 2-HG cell-based inhibition assay, U87MG IDH1R132C_D279N cis. The following applies: Cell line construct U87MG IDH1R132C_D279N cis; 2-HG by LC-MS. As for the experimental part:
as §1, §2, §3, §4, §5

In experiment [5] the target is T1, R132H_S280F mutant IDH1. Briefly: 2-HG cell-based inhibition assay, Ba/F3 R132H_S280F. To be noted: Cell line construct Ba/F3 R132H_S280F; 2-HG in conditioned media by LC-MS.
The next experiment has as its target T11, IDH1R132L_G131A cis (Homo sapiens, UniProt O75874, G131A/R132L).
T11 construct: expressed in transfected cells; host or cells: U-87 MG (ATCC HTB-14)
Briefly: 2-HG cell-based inhibition assay, U87MG IDH1R132L_G131A cis. The following applies: Cell line construct U87MG IDH1R132L_G131A cis; 2-HG by LC-MS. As to the method:
as §1, §2, §3, §4, §5

For a further experiment, the target named is T12, IDH1R132H_D279N cis (Homo sapiens, UniProt O75874, D279N/R132H).
T12 construct: expressed in transfected cells; host or cells: U-87 MG (ATCC HTB-14)
T12 sequence (O75874 whole entry R132H/D279N): as the sequence (O75874 whole entry R132C/G289D) above, with C132H, D279N, D289G counted along it
Briefly: 2-HG cell-based inhibition assay, U87MG IDH1R132H_D279N cis. To be noted: Cell line construct U87MG IDH1R132H_D279N cis; 2-HG by LC-MS. As to the method: as §1, §2, §3, §4, §5

For the next experiment, the target named is T13, IDH1R132L_H315D cis (Homo sapiens, UniProt O75874, H315D/R132L).
T13 construct: expressed in transfected cells; host or cells: U-87 MG (ATCC HTB-14)
T13 sequence (O75874 whole entry R132L/H315D): as the sequence (O75874 whole entry R132C/G289D) above, with C132L, D289G, H315D counted along it
The experiment is described as follows: 2-HG cell-based inhibition assay, U87MG IDH1R132L_H315D cis. The following applies: Cell line construct U87MG IDH1R132L_H315D cis; 2-HG by LC-MS. As to the method: as §1, §2, §3, §4, §5

The target of a further experiment is T14, IDH1R132L_S280F cis (Homo sapiens, UniProt O75874, R132L/S280F).
T14 construct: expressed in transfected cells; host or cells: U-87 MG (ATCC HTB-14)
T14 sequence (O75874 whole entry R132L/S280F): as the sequence (O75874 whole entry R132C/G289D) above, with C132L, S280F, D289G counted along it
The experiment is described as follows: 2-HG cell-based inhibition assay, U87MG IDH1R132L_S280F cis. To be noted: Cell line construct U87MG IDH1R132L_S280F cis; 2-HG by LC-MS. As for the experimental part:
as §1, §2, §3, §4, §5

In the next experiment the target is T15, IDH1R132C_G131A cis (Homo sapiens, UniProt O75874, G131A/R132C).
T15 construct: expressed in transfected cells; host or cells: U-87 MG (ATCC HTB-14)
T15 sequence (O75874 whole entry G131A/R132C): as the sequence (O75874 whole entry R132C/G289D) above, with G131A, D289G counted along it
Briefly: 2-HG cell-based inhibition assay, U87MG IDH1R132C_G131A cis. The following applies: Cell line construct U87MG IDH1R132C_G131A cis; 2-HG by LC-MS. As for the experimental part:
as §1, §2, §3, §4, §5

The target of the next experiment is T16, IDH1R132H_H315D cis (Homo sapiens, UniProt O75874, H315D/R132H).
T16 construct: expressed in transfected cells; host or cells: U-87 MG (ATCC HTB-14)
T16 sequence (O75874 whole entry R132H/H315D): as the sequence (O75874 whole entry R132C/G289D) above, with C132H, D289G, H315D counted along it
The experiment is described as follows: 2-HG cell-based inhibition assay, U87MG IDH1R132H_H315D cis. To be noted: Cell line construct U87MG IDH1R132H_H315D cis; 2-HG by LC-MS. As for the experimental part: as §1, §2, §3, §4, §5

The target of another experiment is T17, IDH1R132L_D279N cis (Homo sapiens, UniProt O75874, D279N/R132L).
T17 construct: expressed in transfected cells; host or cells: U-87 MG (ATCC HTB-14)
T17 sequence (O75874 whole entry R132L/D279N): as the sequence (O75874 whole entry R132C/G289D) above, with C132L, D279N, D289G counted along it
The experiment is described as follows: 2-HG cell-based inhibition assay, U87MG IDH1R132L_D279N cis. To be noted: Cell line construct U87MG IDH1R132L_D279N cis; 2-HG by LC-MS. As to the method: as §1, §2, §3, §4, §5

The target of experiment [6] is T6, R132C_S280F mutant IDH1. Briefly: 2-HG cell-based inhibition assay, U87MG R132C_S280F. To be noted: Cell line construct U87MG R132C_S280F; 2-HG by LC-MS. As to the method: as §1, §2, §3, §4, §5
The target of another experiment is T18, IDH1R132H_G131A cis (Homo sapiens, UniProt O75874, G131A/R132H).
T18 construct: expressed in transfected cells; host or cells: U-87 MG (ATCC HTB-14)
T18 sequence (O75874 whole entry G131A/R132H): as the sequence (O75874 whole entry R132C/G289D) above, with G131A, C132H, D289G counted along it
Briefly: 2-HG cell-based inhibition assay, U87MG IDH1R132H_G131A cis. The following applies: Cell line construct U87MG IDH1R132H_G131A cis; 2-HG by LC-MS. As for the experimental part:
as §1, §2, §3, §4, §5

Molecules are shown by their SMILES.

T1 sequence (O75874 whole entry R132H/S280F): as the sequence (O75874 whole entry R132C/G289D) above, with C132H, S280F, D289G counted along it
T11 sequence (O75874 whole entry G131A/R132L): as the sequence (O75874 whole entry R132C/G289D) above, with G131A, C132L, D289G counted along it
T9 sequence (O75874 whole entry R119P/R132C): as the sequence (O75874 whole entry R132C/G289D) above, with R119P, D289G counted along it

Regarding `C=CC(=O)N1CCN([C@@H](CC2CC2)c2ccc([C@H](C)Nc3ncc4c(n3)N(CC)C(=O)OC4)cc2)CC1` [Compound A, 7-[[(1S)-1-[4-[(1S)-2-cyclopropyl-1-(4-prop-2-enoylpiperazin-1-yl)ethyl]phenyl]ethyl]amino]-1-ethyl-4H-pyrimido[4,5-d][1,3]oxazin-2-one], the IC50 came out at 0.00258 µM against R132H_S280F mutant IDH1 [1]; 0.0235 µM on IDH1R132C_G289D cis; 0.00133 µM against IDH1R132C_H315D cis; 0.00252 µM against IDH1R132H_R119P cis; 0.0294 µM against IDH1R132L_G289D cis; 0.00153 µM against R132C_S280F mutant IDH1 [2]. For the same molecule, the concentration for half-maximal inhibition (IC50) at IDH1R132L_R119P cis is 0.0897 µM; on R132H mutant IDH1 [3] it was 0.00032 µM; on R132H mutant IDH1 [4], 0.00011 µM; against IDH1R132C_R119P cis, 0.0105 µM; against IDH1R132C_D279N cis, 0.102 µM; against R132H_S280F mutant IDH1 [5], 0.00113 µM. Moreover, the IC50 amounted to 0.0645 µM on IDH1R132L_G131A cis; 0.0138 µM at IDH1R132H_D279N cis; 0.00507 µM against IDH1R132L_H315D cis; 0.179 µM against IDH1R132L_S280F cis; 0.0256 µM on IDH1R132C_G131A cis; 0.00149 µM on IDH1R132H_H315D cis. Also, the IC50 against IDH1R132L_D279N cis was determined as 0.645 µM; against R132C_S280F mutant IDH1 [6], 0.0125 µM; at IDH1R132H_G131A cis it was 0.00589 µM.
